Experiments:
[1] = Dynamic solubility in water, SGF, FaSSIF and FeSSIF; type: physicochemical
Experimental: Purified water was added to complete dissolution.

[2] = Hygroscopicity by dynamic vapor sorption (DVS); type: physicochemical; details: 25 °C
Experimental: The dynamic vapor sorption (DVS) curve was collected on DVS IntrInsic from SMS (surface measurement systems). The relative humidity at 25 °C was corrected using the deliquescence points of LiCl, Mg(NO3)2, and KCl.
Starting from 0% RH or room humidity, the test collected the mass change percentage of the sample as the humidity changed (0% RH to 95% RH) under constant temperature conditions of 25 °C The results of the DVS test and the XRPD results of the samples before and after the DVS test are shown in FIG. 113 to FIG. 122.

[3] = Solid state stability (25 °C/60% RH and 40 °C/75% RH, one week; XRPD and HPLC); type: physicochemical; details: open condition, one week, 25 °C/60% RH and 40 °C/75% RH
Experimental: The purity test, dynamic solubility test, and stability test in the assay were measured with an Agilent 1260 high-performance liquid chromatograph, and the salt formation molar ratio of ions was tested by ion chromatography, and the analytical conditions are shown in Table 5 and Table 6.

[4] = Influence of vacuum drying on crystal form A (XRPD, HPLC purity); type: physicochemical; details: vacuum drying 60 °C/80 °C, 4 hours
Experimental: In order to evaluate the influence of the drying conditions on the crystal form A of the compound of formula I, the changes of the sample before and after vacuum drying of the crystal form A of the compound of formula I under the condition of 60 °C/80 °C for 4 hours were respectively investigated. The XRPD, ^1H NMR, and HPLC purity of the dried sample were tested.

[5] = Variable temperature XRPD (VT-XRPD) of crystal forms; type: physicochemical; details: purged with N2 for 20 minutes
Description: The XRPD pattern was collected on an X-ray powder diffraction analyzer produced by PANalytacal, and the scanning parameters are shown in Table 2.
The crystal form A of the compound of formula I of Example 2 was identified using variable temperature XRPD (VT-XRPD).

[6] = Human liver microsome stability; type: in vitro ADME; details: human liver microsomes, 30 min, 37 °C, NADPH; read-out: Remaining percentage of compound after incubation for 30 min
Experimental: The human liver microsome stability test was performed by incubating the compound and human liver microsomes in vitro. First, the compound to be tested was prepared into a 10 mM stock solution in DMSO solvent, and then the compound was diluted to 0.5 mM with acetonitrile. Human liver microsomes (Corning) were diluted with PBS into a microsome/buffer solution, and the solution was used to dilute 0.5 mM compound into a working solution, in which the concentration of the compound was 1.5 μM, and the concentration of human liver microsomes was 0.75 mg/mL. A deep-well plate was taken, 30 μL of the working solution was added per well, and then 15 μL of pre-heated 6 mM NADPH solution was added thereto to initiate a reaction, and the reaction was incubated at 37 °C At 0, 5, 15, 30, and 45 min of the incubation, 135 μL of acetonitrile was added to the corresponding wells to terminate the reaction. After the reaction was terminated with acetonitrile at the last time point of 45 min, the deep-well plate was vortexed for 10 min (600 rpm/min), and then centrifuged for 15 min. After centrifugation, the supernatant was collected, and added with purified water in a ratio of 1:1 to perform LC-MS/MS detection. A ratio of a peak area of compound to a peak area of internal standard at each time point was obtained, and the peak area ratios of the compound at 5, 15, 30, and 45 min were compared with the peak area ratio at 0 min to calculate the remaining percentage of the compound at each time point. T1/2 was calculated by using GraphPad 5 software.

[7] = tested on: mutated KRAS and wild-type KRAS in tumor cells; details: cited from earlier work

## Cc1nc(N[C@H](C)c2cccc(S(F)(F)(F)(F)F)c2)c2cn(C3(CF)CC3)c(=O)cc2n1 [crystal form A of the compound of formula I]
[1]; 37 °C, 10 mg/mL feed, 1, 4, 24 hours
  solubility in water, SGF, FaSSIF and FeSSIF: high solubility
[1]; XRPD after solubility test
  change in crystal form after solubility test: no change in crystal form is observed
[2]; higher than 10% RH
  moisture behaviour higher than 10% RH: absorb more moisture and gain more weight with the increase of humidity
[2]; lower than 10% RH
  moisture behaviour lower than 10% RH: rapidly dehydrate
[3]
  solid state stability: good stability
[4]
  change in purity before and after drying (HPLC): no significant change in purity was observed
[4]; exposure to 19 °C/27% RH 10-15 min
  crystal form after vacuum drying: still the crystal form A of the compound of formula I
[5]
  crystal form on N2 purging: transformed into a new crystal form B

## Cc1nc(N[C@H](C)c2cccc(C(F)(F)F)c2C)c2cn(C3(CF)CC3)c(=O)cc2n1 [Control compound 1, reference compound]
[6]
  remaining at 0.5 h: 70.2%

## CNCc1ccccc1-c1csc([C@@H](C)Nc2nc(C)nc3cc(OC)c(OC)cc23)c1 [BAY-293]
[7]
  reduction of activity of mutated and wild-type KRAS in tumor cells: can effectively reduce the activity of mutated KRAS and wild-type KRAS in tumor cells
